Values of other authors as cited in US20020099506A1, “Methods and apparatus for predicting ligand binding interactions” (priority 2000, published 2002).
Entries after “also recorded” stand apart in the source; their conditions may differ.

System: histdyl t-RNA synthetase
Conditions: not given

SMILES | recognition by the enzyme (experimental observations)
N[C@@H](Cc1c[nH]cn1)C(=O)O [histidine] | the only ligand recognized by this enzyme

System: olfactory receptor S18
Conditions: according to Malnic et al.

SMILES | experimental response of S18
O=C(O)CCCCCCCBr [8-bromo-octanoic acid] | responds experimentally
CCCCCCC(=O)O [heptanoic acid] | responds experimentally
CCCCCCCCC(=O)O [nonanoic acid] | responds experimentally
CCCCCCCCCO [nonanol] | responds experimentally
CCCCCCCC(=O)O [octanoic acid] | responds experimentally
CCCCCCCCO [octanol] | responds experimentally

System: olfactory receptor S25 (OR S25)
Conditions: data of Malnic et al.; 24 odorants of 4-9 carbon atoms

SMILES | experimental odor response of S25
CCCCCCCO [heptanol] | responds positively; also recorded: elicited measurable responses
CCCCCCO [hexanol] | responds positively; also recorded: elicited measurable responses
